For data set [1], the system named is P. aeruginosa infection of C. elegans. Briefly: "Slow killing" P. aeruginosa infection (pathogenesis) assay in C. elegans. The data set is classed as in vivo.
The subject of data set [2] is C. elegans genome (immune and detoxification gene transcription). Briefly: Transcriptome profiles of wild-type nematodes (Affymetrix whole genome genechips). In kind it is in vivo. As for the experimental part: The effects of R24 on C. elegans was further characterized by generating transcriptome profiles of wild-type nematodes following exposure to either 70 μM R24 or the solvent control DMSO using Affymetrix whole genome […] induced a remarkably robust transcriptional response that involved only a small fraction ( 1.3%) of the genes of the C. elegans genome. […] For example, seventy (70) of the two hundred sixty-nine (269) […]. aeruginosa using a previously described gene set. Troemel et al., (2006).

Data set [3] deals with C. elegans. Briefly: C. elegans brood size. The data set is classed as in vivo. As to conditions: absence of pathogen. An excerpt:
(§1) In reports describing the anti-infective, immunostimulatory xenobiotic R24 it was noted that this compound was toxic to nematodes growing in the absence of pathogen. Pukkila-Worley et al., (2012). […] FIG. 4A. […] FIG. 4B.

Data set [4] concerns C. elegans. Briefly: C. elegans survival in the absence of pathogen. In kind it is in vivo.
Text: as §1

The subject of data set [5] is p38 MAPK PMK-1-dependent antimicrobial immune effectors. The data set is classed as in vivo, C. elegans. The note with it: qRT-PCR.
The subject of data set [6] is F08G5.6::GFP (p38 MAPK PMK-1 pathway-dependent immune effector reporter). Briefly: F08G5.6::GFP immune transcriptional reporter in C. elegans. In kind it is in vivo.
In data set [7] the test system is p38 MAPK PMK-1-dependent antimicrobial immune effectors. As to conditions: nanoString codeset of 118 genes; previous study (Pukkila-Worley 2014); cited from earlier work.
Data set [8] deals with C. elegans genome (immune and detoxification gene transcription). As to conditions: previously observed; not dependent on p38 MAPK PMK-1 pathway; cited from earlier work.
The subject of data set [9] is P. aeruginosa. Briefly: In vitro P. aeruginosa growth assay in the absence of C. elegans. In kind it is cell-based.
For data set [10], the system named is nematodes. Briefly: Nematode killing by UPR inducers combined with immunostimulatory molecules. The data set is classed as in vivo. An excerpt: In one embodiment, the present invention contemplates a method comprising administering small molecules having clinical antihelminthic efficacy by inducing an unfolded protein response (UPR) in endoplasmic reticulum. In one embodiment, the unfolded endoplasmic reticulum protein response is mediated by small molecules including, but not limited to, tunicamycin and bortezomib (Velcade®). […] See, FIG. 4C. Although it is not necessary to understand the mechanism of an invention, it is believed that components of the nematode UPR are strongly conserved and thus UPR inducers will have dose-limiting toxicity in mammals.
Nematocidal activity of different combinations of these molecules and known anti-helminthics (e.g. ivermectin and albendazole) can be tested to identify those that have synergistic activity. For example, antihelminthic efficacy of chemical inducers of the UPR (e.g. tunicamycin) can be used.

“Also recorded” adds a separate entry of the source.

`Cc1ccc(Nc2nc(N)c3ccccc3n2)cc1Cl` [R24]: the “ability of R24 to prolong lifespan of C. elegans with mutations in four other p38 MAP kinase pathway components” value in data set [1] (p38 MAP kinase pathway mutants, data not shown) is “dramatically attenuated”. The “R24-mediated lifespan prolongation of pmk-1(km25) null mutants infected with P. aeruginosa, compared to compound-treated wild-type” value in [1] (pmk-1(km25) null mutants, P<0.001) is listed as “Lack of improved survivability; also recorded: significantly decreased”. The “C. elegans survival during P. aeruginosa bacterial infection” value in [1] (wild-type C. elegans) was “dose-dependent improvement; also recorded: Improved survivability; also recorded: protects”. The “number of the 269 R24-induced genes activated during infection with P. aeruginosa” value in data set [2] (70 μM R24, overlap P<2.7×10^−16) turned out to be 70 genes. Besides, the “number of genes induced more than 50-fold” value in data set [2] (70 μM R24 vs DMSO) turned out to be 125 genes. Moreover, in data set [2] (70 μM R24 vs DMSO, P<0.025), the “number of genes upregulated three-fold or greater” value came out at 269 genes. Moreover, the “fraction of the genes of the C. elegans genome involved in the transcriptional response” value in data set [2] (70 μM R24 vs solvent control DMSO, wild-type) is listed as about 1.3%. Further, the “brood sizes of nematodes exposed from the first larval stage” value in [3] is “dramatically smaller”. Further, the C. elegans survival result in [4] was “dose dependent shortening”. In data set [5], the “antimicrobial immune effectors induced by R24 in wild-type that pmk-1(km25) mutants failed to upregulate” value is listed as “six of ten”. For the same compound, in data set [6] (nsy-1(ums8) gain-of-function mutant, 70 μM R24 (FIG. 11B)), the “F08G5.6::GFP expression in nsy-1(ums8) mutant exposed to R24, compared to untreated nsy-1(ums8) animals” value was “markedly increased”. In addition, the “F08G5.6::GFP transgene expression” value in [6] (uninfected nematodes) is listed as “strongly induced”. The “number of codeset genes whose induction by R24 was dependent on the p38 MAPK PMK-1” value in [7] is 13 genes. In addition, the “induction of detoxification genes/enzymes (CYPs, GSTs, UDPs)” value in [8] is “robust induction; also recorded: causes the induction”. In data set [9], the “growth of P. aeruginosa in an in vitro assay” value is “lack of effect; also recorded: did not have any effect”.
Consider `CC(C)C[C@H](NC(=O)[C@H](Cc1ccccc1)NC(=O)c1cnccn1)B(O)O` [bortezomib], for which the “killing of nematodes in combination with immunostimulatory molecules” value in [10] is “act synergistically”.
On the same count and under the same terms, the entry for tunicamycin is “act synergistically”.

These data come from patent US10729690B2, “Antihelminthic medications for pathogenic nematodes” (priority 2016, dated 2020).
